Results taken from paper PMC8199946.

How the values were obtained:
[1] = macrolactonisation by intramolecular SN2 of carboxylate on C6 sulfonate (tosylate; one brosylate, one chloride) of glucosamine derivative, K2CO3 2 equiv; details: DMF, 10.0 mM, 75.0 °C
[2] = macrolactonisation by intramolecular SN2 of carboxylate on C6 tosylate of GlcNAc derivative, K2CO3 2 equiv; details: MeCN, 6.0 mM, 75.0 °C

With `CC(=O)N[C@H]1[C@H]2OCCn3cc(nn3)CCCCCCCCC(=O)OC[C@@H](O2)[C@@H](OC(=O)c2ccccc2)[C@@H]1OC(=O)c1ccccc1` [8a -> LM28, OBs] the ring closure, isolated yield ([1]; from CC(=O)N[C@H]1[C@@H](OCCn2cc(CCCCCCCCC(=O)O)nn2)O[C@H](COS(=O)(=O)c2ccc(Br)cc2)[C@@H](OC(=O)c2ccccc2)[C@@H]1OC(=O)c1ccccc1, 20-membered ring, 5.0 h) was 72%.

Molecule `CC(=O)N[C@H]1[C@H]2OCCn3cc(nn3)CCCCCCCCC(=O)OC[C@@H](O2)[C@@H](OC(=O)c2ccccc2)[C@@H]1OC(=O)c1ccccc1` [8b -> LM28, Cl] has a ring closure, isolated yield ([1]; from CC(=O)N[C@H]1[C@@H](OCCn2cc(CCCCCCCCC(=O)O)nn2)O[C@H](CCl)[C@@H](OC(=O)c2ccccc2)[C@@H]1OC(=O)c1ccccc1, 20-membered ring, 5.0 h) of 67%.

For `CC(=O)N[C@H]1[C@H]2OCCn3cc(nn3)CCCCCCCCC(=O)OC[C@@H](O2)[C@@H](OC(=O)c2ccccc2)[C@@H]1OC(=O)c1ccccc1` [8c -> 13c (LM28), OTs], the ring closure, isolated yield ([1]; from CC(=O)N[C@H]1[C@@H](OCCn2cc(CCCCCCCCC(=O)O)nn2)O[C@H](COS(=O)(=O)c2ccc(C)cc2)[C@@H](OC(=O)c2ccccc2)[C@@H]1OC(=O)c1ccccc1, 20-membered ring, 3.0 h) was 82%.

In the case of `CC(=O)N[C@H]1[C@H]2OCCn3cc(nn3)CCCCCCCCC(=O)OC[C@@H](O2)[C@@H](OC(=O)c2ccccc2)[C@@H]1OC(=O)c1ccccc1` [8c -> LM28 (13c)], the ring closure, isolated yield ([2]; from CC(=O)N[C@H]1[C@@H](OCCn2cc(CCCCCCCCC(=O)O)nn2)O[C@H](COS(=O)(=O)c2ccc(C)cc2)[C@@H](OC(=O)c2ccccc2)[C@@H]1OC(=O)c1ccccc1, 20-membered ring, 6.0 h) is reported as 77%.

Molecule `CC(=O)N[C@H]1[C@H]2OCCn3cc(nn3)CCCCC(=O)OC[C@@H](O2)[C@@H](OC(=O)c2ccccc2)[C@@H]1OC(=O)c1ccccc1` [11a -> 13a (LM24)] has a ring closure, isolated yield ([1]; from CC(=O)N[C@H]1[C@@H](OCCn2cc(CCCCC(=O)O)nn2)O[C@H](COS(=O)(=O)c2ccc(C)cc2)[C@@H](OC(=O)c2ccccc2)[C@@H]1OC(=O)c1ccccc1, 16-membered ring, 2.0 h) of 88%.

Work on `CC(=O)N[C@H]1[C@H]2OCCn3cc(nn3)CCCCCCC(=O)OC[C@@H](O2)[C@@H](OC(=O)c2ccccc2)[C@@H]1OC(=O)c1ccccc1` [11b -> 13b (LM26)] yielded a ring closure, isolated yield ([1]; from CC(=O)N[C@H]1[C@@H](OCCn2cc(CCCCCCC(=O)O)nn2)O[C@H](COS(=O)(=O)c2ccc(C)cc2)[C@@H](OC(=O)c2ccccc2)[C@@H]1OC(=O)c1ccccc1, 18-membered ring, 5.0 h) of 76%.

In the case of `CC(=O)N[C@H]1[C@H]2OCCCn3cc(nn3)CCCCC(=O)OC[C@@H](O2)[C@@H](OC(=O)c2ccccc2)[C@@H]1OC(=O)c1ccccc1` [12a -> 14a (LM34)], the ring closure, isolated yield ([1]; from CC(=O)N[C@H]1[C@@H](OCCCn2cc(CCCCC(=O)O)nn2)O[C@H](COS(=O)(=O)c2ccc(C)cc2)[C@@H](OC(=O)c2ccccc2)[C@@H]1OC(=O)c1ccccc1, 17-membered ring, 2.0 h) is reported as 88%.

`CC(=O)N[C@H]1[C@H]2OCCCn3cc(nn3)CCCCCCC(=O)OC[C@@H](O2)[C@@H](OC(=O)c2ccccc2)[C@@H]1OC(=O)c1ccccc1` [12b -> 14b (LM36)] gave a ring closure, isolated yield ([1]; from CC(=O)N[C@H]1[C@@H](OCCCn2cc(CCCCCCC(=O)O)nn2)O[C@H](COS(=O)(=O)c2ccc(C)cc2)[C@@H](OC(=O)c2ccccc2)[C@@H]1OC(=O)c1ccccc1, 19-membered ring, 2.0 h) of 83%.

Molecule `CC(=O)N[C@H]1[C@H]2OCCCn3cc(nn3)CCCCCCCCC(=O)OC[C@@H](O2)[C@@H](OC(=O)c2ccccc2)[C@@H]1OC(=O)c1ccccc1` [12c -> 14c (LM38)] has a ring closure, isolated yield ([1]; from CC(=O)N[C@H]1[C@@H](OCCCn2cc(CCCCCCCCC(=O)O)nn2)O[C@H](COS(=O)(=O)c2ccc(C)cc2)[C@@H](OC(=O)c2ccccc2)[C@@H]1OC(=O)c1ccccc1, 21-membered ring, 2.0 h) of 83%.

Work on `CC(=O)N[C@H]1[C@H]2OCCn3cc(nn3)CCCCc3cn(nn3)CCC(=O)OC[C@@H](O2)[C@@H](OC(=O)c2ccccc2)[C@@H]1OC(=O)c1ccccc1` [15a -> 16a (DM24)] yielded a ring closure, isolated yield ([2]; from CC(=O)N[C@H]1[C@@H](OCCn2cc(CCCCc3cn(CCC(=O)O)nn3)nn2)O[C@H](COS(=O)(=O)c2ccc(C)cc2)[C@@H](OC(=O)c2ccccc2)[C@@H]1OC(=O)c1ccccc1, 21-membered ring, 11.0 h) of 77% and a ring closure, isolated yield ([1]; from CC(=O)N[C@H]1[C@@H](OCCn2cc(CCCCc3cn(CCC(=O)O)nn3)nn2)O[C@H](COS(=O)(=O)c2ccc(C)cc2)[C@@H](OC(=O)c2ccccc2)[C@@H]1OC(=O)c1ccccc1, 21-membered ring, 4.0 h) of 90%.

For `CC(=O)N[C@H]1[C@H]2OCCn3cc(nn3)CCCCCc3cn(nn3)CCC(=O)OC[C@@H](O2)[C@@H](OC(=O)c2ccccc2)[C@@H]1OC(=O)c1ccccc1` [15b -> 16b (DM25)], the ring closure, isolated yield ([2]; from CC(=O)N[C@H]1[C@@H](OCCn2cc(CCCCCc3cn(CCC(=O)O)nn3)nn2)O[C@H](COS(=O)(=O)c2ccc(C)cc2)[C@@H](OC(=O)c2ccccc2)[C@@H]1OC(=O)c1ccccc1, 22-membered ring, 14.0 h) was 71% and the ring closure, isolated yield ([1]; from CC(=O)N[C@H]1[C@@H](OCCn2cc(CCCCCc3cn(CCC(=O)O)nn3)nn2)O[C@H](COS(=O)(=O)c2ccc(C)cc2)[C@@H](OC(=O)c2ccccc2)[C@@H]1OC(=O)c1ccccc1, 22-membered ring, 2.0 h) was 88%.

`CC(=O)N[C@H]1[C@H]2OCCCn3cc(nn3)CCCCc3cn(nn3)CCC(=O)OC[C@@H](O2)[C@@H](OC(=O)c2ccccc2)[C@@H]1OC(=O)c1ccccc1` [15c -> 16c (DM34)] showed a ring closure, isolated yield ([2]; from CC(=O)N[C@H]1[C@@H](OCCCn2cc(CCCCc3cn(CCC(=O)O)nn3)nn2)O[C@H](COS(=O)(=O)c2ccc(C)cc2)[C@@H](OC(=O)c2ccccc2)[C@@H]1OC(=O)c1ccccc1, 22-membered ring, 14.0 h) of 78% and a ring closure, isolated yield ([1]; from CC(=O)N[C@H]1[C@@H](OCCCn2cc(CCCCc3cn(CCC(=O)O)nn3)nn2)O[C@H](COS(=O)(=O)c2ccc(C)cc2)[C@@H](OC(=O)c2ccccc2)[C@@H]1OC(=O)c1ccccc1, 22-membered ring, 2.0 h) of 85%.

In the case of `CC(=O)N[C@H]1[C@H]2OCCCn3cc(nn3)CCCCCc3cn(nn3)CCC(=O)OC[C@@H](O2)[C@@H](OC(=O)c2ccccc2)[C@@H]1OC(=O)c1ccccc1` [15d -> 16d (DM35)], the ring closure, isolated yield ([2]; from CC(=O)N[C@H]1[C@@H](OCCCn2cc(CCCCCc3cn(CCC(=O)O)nn3)nn2)O[C@H](COS(=O)(=O)c2ccc(C)cc2)[C@@H](OC(=O)c2ccccc2)[C@@H]1OC(=O)c1ccccc1, 23-membered ring, 15.0 h) is reported as 74% and the ring closure, isolated yield ([1]; from CC(=O)N[C@H]1[C@@H](OCCCn2cc(CCCCCc3cn(CCC(=O)O)nn3)nn2)O[C@H](COS(=O)(=O)c2ccc(C)cc2)[C@@H](OC(=O)c2ccccc2)[C@@H]1OC(=O)c1ccccc1, 23-membered ring, 3.0 h) is reported as 78%.

`CO[C@H]1O[C@@H]2COC(=O)CCCCCCCCc3cn(nn3)CC(=O)N[C@@H]1[C@@H](OC(=O)c1ccccc1)[C@@H]2OC(=O)c1ccccc1` [21 -> 22 (C2ML)] gave a ring closure, isolated yield ([1]; from CO[C@H]1O[C@H](COS(=O)(=O)c2ccc(C)cc2)[C@@H](OC(=O)c2ccccc2)[C@H](OC(=O)c2ccccc2)[C@H]1NC(=O)Cn1cc(CCCCCCCCC(=O)O)nn1, 21-membered ring, 2.0 h) of 80%.

In the case of `CO[C@H]1O[C@@H]2COC(=O)CCn3cc(nn3)CCCCc3cn(nn3)CC(=O)N[C@@H]1[C@@H](OC(=O)c1ccccc1)[C@@H]2OC(=O)c1ccccc1` [23 -> 24 (C2DLM)], the ring closure, isolated yield ([1]; from CO[C@H]1O[C@H](COS(=O)(=O)c2ccc(C)cc2)[C@@H](OC(=O)c2ccccc2)[C@H](OC(=O)c2ccccc2)[C@H]1NC(=O)Cn1cc(CCCCc2cn(CCC(=O)O)nn2)nn1, 22-membered ring, 2.0 h) is reported as 77%.
